Measurements taken from patent publication US20080081827A1, “Use of a Pyrazole-Derived Compound that is an Antagonist for Cannabinoid CB1 Receptors, for Treating or Preventing Chronic Bronchitis or Chronic Obstructive Bronchopneumopathy” (SANOFI AVENTIS, priority 2004, published 2008).
Where two headings read alike, the source gives them in different places.

What was measured:
[1] = obese patients, clinical studies; cited from earlier work
[2] = tested on: LPS-induced migration of neutrophil and mononuclear cells in the bronchoalveolar space; assay: Migration of cells in the bronchoalveolar space after activation with bacterial LPS; type: in vivo; details: mice, doses 0.3 to 30 mg/kg; for ED50: Mus musculus, i.p. 1 hour before 10 μG intratracheal LPS, bronchoalveolar lavage 24 hours after LPS
Protocol: Migration of cells in the bronchoalveolar space after activation with bacterial LPS (lipopolysaccharide).
Mice weighing 28 to 30 g are stimulated by means of an intratracheal exposure to 10 μG of LPS. 24 hours after the injection of LPS, the animals are anaesthetized with pentobarbital and a bronchoalveolar lavage is performed. The lavage fluids are recovered and are centrifuged, and the cells are then resuspended. The number of cells is counted, differentiating the eosinophil, neutrophil and mononuclear cells according to standard morphological criteria.
The intratracheal injection of LPS induces a considerable increase in the number of mononuclear cells and neutrophils in the bronchoalveolar space of the mice.

[3] = STRATUS clinical study, nicotine addiction; cited from earlier work

Cc1c(C(=O)NN2CCCCC2)nn(-c2ccc(Cl)cc2Cl)c1-c1ccc(Cl)cc1 [rimonabant, N-piperidino-5-(4-chlorophenyl)-1-(2,4-dichlorophenyl)-4-methylpyrazole-3-carboxamide]
effect on hunger, calorie intake and body weight [1]: reduces hunger, calorie intake, and the body weight of obese patients
ED50 ([2]; Mononuclear cell, read-out: ED50, inhibition of migration of the mononuclear cells): 1.9 mg/kg
ED50 ([2]; Neutrophil, read-out: effective dose 50 (ED50), inhibition of migration of the neutrophil cells): 2.3 mg/kg
inhibition of migration of the neutrophil cells ([2]; i.p. 1 hour before intratracheal LPS): more than 80%
effect on giving up smoking [3]: facilitates giving up smoking
